Measured values: patent EP3095787A1, “[…] ACTIVE COMPOUNDS AS DAG-LIPASE INHIBITORS” (Universiteit Leiden, priority 2015, dated 2016)

Assays:
DAGL-α = biological target: T1, DAGL-α (Mus musculus, UniProt Q6WQJ1); test: Competitive ABPP with MB064 on endogenous DAGL-α in mouse brain membrane proteome; type: biochemical; details: MB064 250 nM, n=3, read-out: pIC50 of DAGL-α labeling by MB064 (converted)
T1 construct: endogenously expressed DAGL-α in mouse membrane proteome; from tissue; host or cells: mouse brain membrane proteome
T1 sequence (Q6WQJ1 1-1044): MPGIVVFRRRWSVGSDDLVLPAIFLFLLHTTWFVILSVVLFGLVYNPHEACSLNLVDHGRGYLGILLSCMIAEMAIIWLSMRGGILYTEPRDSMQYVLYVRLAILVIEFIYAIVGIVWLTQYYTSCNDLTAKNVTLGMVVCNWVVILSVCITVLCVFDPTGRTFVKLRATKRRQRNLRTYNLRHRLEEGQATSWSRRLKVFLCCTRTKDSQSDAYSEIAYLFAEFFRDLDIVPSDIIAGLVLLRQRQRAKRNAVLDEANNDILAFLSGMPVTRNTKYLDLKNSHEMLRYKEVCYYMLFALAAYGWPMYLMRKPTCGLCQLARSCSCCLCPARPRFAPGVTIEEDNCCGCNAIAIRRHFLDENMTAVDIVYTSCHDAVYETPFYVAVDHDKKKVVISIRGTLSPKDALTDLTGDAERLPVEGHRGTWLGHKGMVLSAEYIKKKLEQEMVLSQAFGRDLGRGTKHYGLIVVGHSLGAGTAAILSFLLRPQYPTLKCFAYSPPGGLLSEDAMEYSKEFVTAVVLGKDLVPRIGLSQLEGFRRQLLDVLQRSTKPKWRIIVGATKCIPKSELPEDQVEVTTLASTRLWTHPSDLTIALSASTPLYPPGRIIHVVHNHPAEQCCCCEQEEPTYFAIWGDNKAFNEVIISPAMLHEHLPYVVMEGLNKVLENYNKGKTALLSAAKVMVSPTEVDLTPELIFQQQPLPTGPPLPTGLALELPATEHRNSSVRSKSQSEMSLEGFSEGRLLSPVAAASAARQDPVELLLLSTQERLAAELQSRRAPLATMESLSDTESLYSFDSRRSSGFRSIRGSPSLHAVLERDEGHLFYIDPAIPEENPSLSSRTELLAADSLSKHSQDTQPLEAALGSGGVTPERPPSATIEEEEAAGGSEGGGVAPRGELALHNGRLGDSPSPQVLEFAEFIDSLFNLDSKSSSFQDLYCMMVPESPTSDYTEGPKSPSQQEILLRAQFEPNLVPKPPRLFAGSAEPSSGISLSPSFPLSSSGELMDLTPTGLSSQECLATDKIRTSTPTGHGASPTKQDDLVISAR
Source text: To test its activity on endogenously expressed DAGL-α in mouse membrane proteome, an ABPP assay with MB064, a specific β-lactone-containing probe, which was tailor-made for the detection of DAGL-α activity, was used. An alkyne group was introduced in the prototypical DAGL-inhibitor tetrahydrolipstatin (THL) and conjugated this covalent, irreversible inhibitor via copper-catalyzed click chemistry to a BODIPY-acid as a fluorencent reporter group to yield tailor-made probe MB064.

cannabinoid CB1 receptor = biological target: T2, cannabinoid CB1 receptor (Homo sapiens, UniProt P21554); test: [3H]CP55940 displacement assay on CHOK1hCB1_bgal membranes; type: binding
T2 construct: expressed in transfected cells; host or cells: CHOK1hCB1_bgal (CHO-K1), membranes
Experimental: CHOK1hCB1_bgal cells (CHOK1 cell line expressing human cannabinoid receptor 1) were cultured in Ham's F12 Nutrient Mixture supplemented with 10% fetal calf serum, 1 mM glutamine, 50 U/mL penicillin, 50 µg/ml streptomycin, […] hygromycin and 800 µg/mL geneticin in a humidified atmosphere at 37°C and 5% CO2. Cells were subcultured twice a week at a ratio of 1:20 on 10-cm ø plates by trypsinization. For membrane preparation the cells were subcultured 1:10 and transferred to large 15-cm diameter plates.
The cells on thirty 15-cm ø plates were detached from the bottom by scraping them into 5 mL phosphate-buffered saline (PBS), collected in 12 mL Falcon tubes and centrifuged for 5 minutes at 200 x g (3,000 rpm). The pellets were resuspended in ice-cold 50 mM Tris-HCl buffer and 5 mM MgCl2 (pH 7.4). […] Membrane protein concentrations were measured using the BCA method.
[^3H]CP55940 displacement assays were used for high throughput screening of cold ligands and the determination of their affinity (Ki) and IC50 values. […] Nonspecific binding was determined in the presence of 10 µM AM630 (6-lodopravadoline; a selective inverse agonist for the cannabinoid receptor CB2). […] After 2 hours, the filter-bound radioactivity was determined by scintillation spectrometry using a Tri-Carb 2900 TR liquid scintillation counter (Perkin Elmer, Boston, MA).

T2 sequence (P21554 whole entry): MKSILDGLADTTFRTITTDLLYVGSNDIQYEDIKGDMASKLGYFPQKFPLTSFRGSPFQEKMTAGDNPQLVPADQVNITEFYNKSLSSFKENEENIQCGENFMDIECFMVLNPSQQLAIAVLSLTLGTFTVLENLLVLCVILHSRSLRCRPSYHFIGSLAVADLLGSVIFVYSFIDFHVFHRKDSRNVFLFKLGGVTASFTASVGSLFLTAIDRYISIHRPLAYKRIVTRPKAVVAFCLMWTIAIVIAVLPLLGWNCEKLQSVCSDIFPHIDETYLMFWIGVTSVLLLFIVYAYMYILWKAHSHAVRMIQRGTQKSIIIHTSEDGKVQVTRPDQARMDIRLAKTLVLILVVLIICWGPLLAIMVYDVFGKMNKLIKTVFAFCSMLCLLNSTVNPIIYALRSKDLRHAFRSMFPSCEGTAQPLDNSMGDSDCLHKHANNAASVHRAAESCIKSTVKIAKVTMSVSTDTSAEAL

IC50 (DAGL-α): 0.0316 µM
displacement of 3H-CP55940 from the CB1 receptor (cannabinoid CB1 receptor; 10 µM): did not displace
Ki (cannabinoid CB1 receptor; CB1 receptor radioligand displacement): > 10 µM
Compound: Cc1ccc(-c2cnc3nc(C(=O)CCCCCc4ccccc4)oc3c2)cc1 [Compound 25, 1-(6-(p-Tolyl)oxazolo[4,5-b]pyridin-2-yl)-6-phenylhexan-1-one]
